The numbers were not newly measured in US20200038413A1, “METHODS OF TREATING PARKINSON'S DISEASE USING AMINOSTEROL COMPOSITIONS” (Enterin, Inc., priority 2018, published 2020), which cites them from elsewhere.

The conditions of data set [1]: single and repeat intravenous administration, alone or in combination; cited from earlier work.
The test system of the next data set is PD population. The note with it: short term placebo controlled trial, PD constipation; cited from earlier work.

Structures can show the parent of a compound that is named as a salt.

As to `CC(C)[C@@H](CC[C@@H](C)[C@H]1CC[C@H]2[C@@H]3[C@H](O)C[C@H]4C[C@@H](NCCCNCCCCN)CC[C@]4(C)[C@H]3CC[C@]12C)OS(=O)(=O)O` [Squalamine dilactate salt], in data set [1], the well tolerated dose entry is given as “at least 300 mg/m^2”. Regarding `CCCCC(F)(F)[C@@]1(O)CC[C@H]2[C@@H](CC(=O)[C@@H]2CCCCCCC(=O)O)O1` [Lubiprostone], the “proportion of those treated in whom effective” value in the data set on PD population is “about 50%”.
